Data reported in ChEMBL document CHEMBL4813937, “Jatrophane Diterpenoids from Euphorbia peplus as Multidrug Resistance Modulators with Inhibitory Effects on the ATR-Chk-1 Pathway” (J Nat Prod, 2021).
The source made the active and inactive calls. The calls are words filed in the database; no cut-off is given here.

Key:
[1] = tested on: A549; test: Induction of apoptosis in human A549 cells assessed as increase in PARP cleavage at 25 uM incubated for 48 hrs by Western blotting analysis; type: functional, cell-based
[2] = Inhibition of ATR/Chk1 pathway in human A549 cells assessed as suppression of […]-induced phosphorylation of Chk1 on serine-345 residue at 20 uM incubated for 12 hrs by Western blotting analysis; type: cell-based

| SMILES | Activity [1] | inhibition [2] |
| --- | --- | --- |
| CC[C@@]1(O)C(=O)OCc2c1cc1n(c2=O)Cc2cc3ccccc3nc2-1 | inactive |  |
| C=C1[C@H](OC(=O)C(C)C)[C@@H](OC(C)=O)[C@@H](OC(C)=O)C(C)(C)/C=C/[C@H](C)[C@H](OC(C)=O)[C@@]2(O)C[C@@](C)(OC(C)=O)[C@H](OC(=O)c3ccccc3)[C@@H]2[C@H]1OC(C)=O |  | Active |
| C=C1[C@H](OC(C)=O)[C@@H](OC(C)=O)[C@@H](OC(C)=O)C(C)(C)/C=C/[C@H](C)[C@H](OC(C)=O)[C@@]2(O)C[C@@](C)(OC(C)=O)[C@H](OC(=O)c3ccccc3)[C@@H]2[C@H]1OC(C)=O |  | Active |
| C=C1[C@H](OC(C)=O)CC(=O)C(C)(C)/C=C/[C@H](C)C(=O)[C@@]2(O)C[C@@](C)(O)[C@H](OC(=O)c3ccccc3)[C@@H]2[C@H]1OC(C)=O |  | Active |
| C=C1[C@H](OC(C)=O)[C@H]2[C@@H](OC(=O)c3ccccc3)[C@](C)(O)C[C@]2(O)C(=O)[C@@H](C)/C=C/C(C)(C)C(=O)[C@H](OC(C)=O)[C@H]1OC(C)=O |  | Active |
| C=C1[C@H](OC(C)=O)[C@H]2[C@@H](OC(=O)c3ccccc3)[C@](C)(OC(C)=O)C[C@]2(O)C(=O)[C@@H](C)/C=C/C(C)(C)C(=O)[C@H](OC(C)=O)[C@H]1OC(C)=O |  | Active |
